The test relates to 415267-285-R-J2-PDC complex spheroid viability. The test is described as follows: Anticancer human tumor 415267-285-R-J2-PDC patient-derived breast carcinoma cell line growth inhibition [POLQ]. The settings on record: for viability, T/C: stronger effect = lower value. Here is the method:
Multicellular complex tumor spheroid response to Polymerase (POL) inhibitors (novobiocin, ART-558, RP6685) in combination with a variety of drugs and investigational agents in selected tumor cell lines
The POL inhibitors (novobiocin, ART-558, and RP6685) were evaluated both individually and in combination with standard of care and investigational anticancer small molecules within a complex spheroid model of solid tumors. . Complex spheroids include a stromal component modeled by human endothelial cells (HUVEC) and fibroblasts modeled by human mesenchymal stem cells (MSCs). The concentration ranges selected for each drug and investigational agent were based upon clinically achievable concentrations if the clinical Cmax of the agent was known.
Compounds. The drugs and investigational agents: novobiocin (NSC847541), ART-558 (NSC835418), RP-6685 (NSC848927), peposertib (NSC802822), ceralasertib (NSC780249), elimusertib (NSC800525), camonsertib (NSC841442), AZD-1390 (NSC803789), olaparib (NSC753686), talazoparib (NSC767125), rucaparib (NSC756644), sotorasib (NSC818433), MRTX-1133 (NSC836407), SN-38 (NSC673596), topotecan (NSC609699), epotoside (NSC141540), doxorubicin (NSC123127), gemcitabine (NSC613327), 5-fluorouracil (NSC19893), paclitaxel (NSC125973), vemurafenib (NSC761431), MSA-2 (NSC828583), SN-011 (NSC837082), adavosertib (NSC754352), prexasertib (NSC758257), carboplatin (NSC241240) and oxaliplatin (NSC266046), were obtained from the National Cancer Institute (NCI) Developmental Therapeutics Program Chemical Repository (21). The FDA-approved anticancer drug set is available from the Developmental Therapeutics Program at https://dtp.cancer.gov/organization/dscb/obtaining/. […] The stock solutions were prepared in dimethyl sulfoxide (DMSO, Sigma-Aldrich, St. Louis, MO, cat. D2650), except for the platinum compounds which were prepared in saline (Quality Biological, Gaithersburg, MD, cat. 114-055-101), at 800-fold the tested concentration and stored at -70 degrees C prior to their use. All drugs and investigational agents were tested over a range starting from a high concentration at or near the clinical Cmax and decreasing in half-log increments. If the clinical Cmax for an agent had not been determined, the highest concentration tested was 10 microM, except for SN-38, which was tested at a high concentration of 1 microM.
Cell Culture. All cells were maintained in an incubator at 37 degrees C and 5% CO2 with 95% humidity. The PDC lines were cultured according to standard operating procedures established by the NCI PDMR (https://pdmr.cancer.gov). Table 3 of the manuscript, lists the cell lines along with the number of the three cell types plated to form the mct-spheroids and media for tumor cell growth. After thawing, all PDC lines, except 997537-175-T-J1-PDC and 415267-285-R-J2-PDC, were cultured in Matrigel-coated flasks prepared with a working solution of 1X Ham's F-12 nutrient mix, without supplementation (Thermo Fisher Scientific, cat. 11765054), 100 U/mL penicillin-streptomycin (Thermo Fisher Scientific, cat. 15140122), and 2.5% Matrigel (Corning Inc., Corning, NY, cat. 354248) for the first three passages. The two PDC lines 997537-175-T-J1-PDC and 415267-285-R-J2-PDC were cultured on uncoated flasks. The 857933-349-R-J2-PDC line was cultured in 6C/Colon 1B media containing advanced DMEM/F-12 (Thermo Fisher Scientific, cat. 12634028), 10 mM HEPES (Thermo Fisher Scientific, cat. 15630080), 1X GlutaMAX supplement (Thermo Fisher Scientific, cat. 35050061), 0.1 mg/mL primocin (InvivoGen, San Diego, CA, cat. ant-pm-2), 10% defined fetal bovine serum, heat inactivated (HyClone Laboratories Inc., Logan, UT, cat. SH30070.03HI), 50% L-WRN conditioned media (ATCC, cat. CRL-3276), 1.25 mM N-Acetyl-L-cysteine (Sigma-Aldrich, cat. A9165), 10 mM nicotinamide (Sigma-Aldrich, cat. N0636), 1X B-27 supplement (Thermo Fisher Scientific, cat. 17504044), 1X N-2 supplement (Thermo Fisher Scientific, cat. […]

[1] abbreviates: compound alone, run of 01/08/2024.
[2] abbreviates: compound alone, run of 01/19/2024.

Where “and” joins values, the source holds several entries; their conditions need not be identical. Equal entries are not always repeated.

As usually defined, the viability, T/C is the result in the treated group divided by that in the control group, in per cent. One may read the IC50 as the concentration that inhibits the measured activity by half.
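Note: spheroids exposed to compounds for one week before readout.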
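Throughout, for viability, T/C: luminescence used as stand-in measure of viable cells.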

`COC1C(OC(N)=O)C(O)C(Oc2ccc3c(O)c(NC(=O)c4ccc(O)c(CC=C(C)C)c4)c(=O)oc3c2C)OC1(C)C` (centres undefined): the viability, T/C by setting is: (compound 0.0316 µM) 99.2% [middle of 13 runs]; (compound 0.1 µM) 105% [middle of 13 runs]; (compound 0.316 µM) 99.3% [middle of 13 runs]; (compound 3.16 µM) 102% [middle of 13 runs]; (compound 10 µM) 102% [middle of 13 runs]. The IC50 under setting [1] is more than 10000 nM.
On to `COc1cc(C2c3cc4c(cc3C(OC3OC5COC(C)OC5C(O)C3O)C3COC(=O)C23)OCO4)cc(OC)c1O` (centres undefined), for which the viability, T/C by setting is: (compound 0.0316 µM) 91.8% and 103% and 92%; (compound 0.1 µM) 59.7% and 89.7% and 71.3%; (compound 0.316 µM) 14.1% and 19.4% and 17.1%; (compound 1 µM) 7.22% and 5.65% and 8.76%; (compound 3.16 µM) 4.9% and 4.07% and 5.15%; (compound 10 µM) 5.87% and 5.42% and 6.28%. Moreover, the concentration for half-maximal inhibition (IC50) (curve of compound) is 128 nM and 192 nM and 157 nM.
For `COc1ccc([C@@H](O)c2cc(-c3ncnc4cc(N5CCOCC5)ccc34)c(F)cc2Cl)nn1`, the viability, T/C (compound 0.0316 µM) is 95.9% and 109% and 85.5%; the viability, T/C (compound 0.1 µM) was 113% and 97.3% and 88.6%; the viability, T/C (compound 0.316 µM) was 95.8% and 98.6% and 91.6%; the viability, T/C (compound 1 µM) was 95.5% and 92.4% and 92.3%; the viability, T/C (compound 3.16 µM) is 86% and 89.3% and 87.6%; the viability, T/C (compound 10 µM) is 40.4% and 53.2% and 40.9%. The IC50 (curve of compound) was 7850 nM and > 10000 nM and 7990 nM.
In the case of `COc1cccc(OCCCN)c1-c1cc(Nc2cnc(C#N)cn2)n[nH]1`, the viability, T/C was 36.5% and 110% and 99.9% (compound 0.00316 µM); 6.92% and 6.25% and 7.08% (compound 0.0316 µM); 6.87% and 6.41% and 5.7% (compound 0.1 µM); 6.1% and 4.51% and 5.49% (compound 0.316 µM); 4.67% and 5.09% and 3.72% (compound 1 µM). The half-inhibitory concentration (IC50) (curve of compound) is < 3.16 nM and 7.96 nM and 7.26 nM.
For `COc1cccc2c1C(=O)c1c(O)c3c(c(O)c1C2=O)CC(O)(C(=O)CO)CC3OC1CC(N)C(O)C(C)O1` (centres undefined), the viability, T/C was 35.4% and 85.5% and 41% (compound 0.0316 µM); 9.21% and 18.3% and 12.6% (compound 0.1 µM); 5.21% and 3.68% and 5.75% (compound 0.316 µM); 0.77% and 1.01% and 0.92% (compound 1 µM); 2.13% and 1.47% and 1.31% (compound 3.16 µM); 2.79% and 3.72% and 2.89% (compound 10 µM). For the same compound, the IC50 (curve of compound) is < 31.6 nM and 58.1 nM.
As for `Cc1cccc(N(C)C(=O)C2C(O)CCN2c2nc(C)cc(C(F)(F)F)c2C#N)c1` (centres undefined), the viability, T/C was 99.1% [middle of 13 runs] (compound 0.0316 µM); 100% [middle of 13 runs] (compound 0.1 µM); 102% [middle of 13 runs] (compound 0.316 µM); 103% [middle of 13 runs] (compound 1 µM); 104% [middle of 13 runs] (compound 3.16 µM); 98.5% [middle of 13 runs] (compound 10 µM). Moreover, the IC50 under setting [1] is more than 10000 nM and the IC50 under setting [2] is more than 10000 nM.
With `Cn1ncnc1[C@H]1c2n[nH]c(=O)c3cc(F)cc(c23)N[C@@H]1c1ccc(F)cc1`, the viability, T/C (compound 0.000316 µM) was 88.1% and 97.7% and 104%; the viability, T/C (compound 0.001 µM) was 98.2% and 104% and 91.7%; the viability, T/C (compound 0.00316 µM) is 90.7% and 92.5% and 103%; the viability, T/C (compound 0.01 µM) was 101% and 98.7% and 94.5%; the viability, T/C (compound 0.0316 µM) was 108% and 89.2% and 99%; the viability, T/C (compound 0.1 µM) is 93.3% and 102% and 100%. The IC50 (curve of compound) was more than 100 nM.
On to `Nc1ccc(C#CCN(C(=O)Cc2ncc(C(F)(F)F)cc2C(F)(F)F)c2ccc(F)cc2)nn1`, for which the viability, T/C (compound 0.0316 µM) was 93.6% [middle of 13 runs]; the viability, T/C (compound 0.1 µM) was 101% [middle of 13 runs]; the viability, T/C (compound 0.316 µM) is 101% [middle of 12 runs]; the viability, T/C (compound 1 µM) was 103% [middle of 13 runs]; the viability, T/C (compound 3.16 µM) is 107% [middle of 13 runs]; the viability, T/C (compound 10 µM) was 106% [middle of 13 runs]. Also, the IC50 under setting [2] is more than 10000 nM.
As to `O=C(c1cc(Cc2n[nH]c(=O)c3ccccc23)ccc1F)N1CCN(C(=O)C2CC2)CC1`, the viability, T/C runs as follows: (compound 0.0316 µM) 92.7% and 95.5% and 108%; (compound 0.1 µM) 109% and 91.4% and 105%; (compound 0.316 µM) 86.8% and 95.3% and 97.5%; (compound 1 µM) 87.8% and 94.8% and 102%; (compound 3.16 µM) 95.3% and 95.4% and 109%; (compound 10 µM) 76.9% and 90.6% and 102%. Besides, the IC50 (curve of compound) was more than 10000 nM.
Take `O=c1[nH]cc(F)c(=O)[nH]1`: the viability, T/C runs as follows: (compound 0.0316 µM) 87.3% and 92.5% and 87%; (compound 0.1 µM) 74.7% and 89% and 73.5%; (compound 0.316 µM) 33.6% and 48.5% and 30.5%; (compound 1 µM) 29.1% and 24.6% and 27.7%; (compound 3.16 µM) 24.6% and 24.4% and 26%; (compound 10 µM) 31.8% and 40.5% and 34.1%. Further, where the note is “curve of compound”, the IC50 was 200 nM and 302 nM and 187 nM.
